{
  "source": "patent US7625708B1",
  "about": "(priority 2005, dated 2009)",
  "origin": "cited, not measured here",
  "key": {"[1]": {"conditions": "rabbit, in vivo"}, "[2]": {"test_system": "NAD(P)H: Quinone Oxidoreductase I (NQO I)"}, "[3]": {"test_system": "Aldehyde Dehydrogenase (ALDH)"}, "[4]": {"test_system": "Cytochrome P450 1A1 (CYP 1A1)"}, "[5]": {"test_system": "Glutathion-S-Transferase (GST)"}, "GDNF mRNA": {"test_system": "GDNF mRNA", "conditions": "rat, in vivo"}},
  "data": [
    {"smiles": "CNC(=O)ON=C(C)SC", "note": "[methomyl]", "values": [
      {"measurement": "detection in the hair shaft", "setting": "[1]", "value": "could be detected"}
    ]},
    {"smiles": "Cc1ccc2cc3c(ccc4ccccc43)c3c2c1CC3", "note": "[methylcholanthrene]", "values": [
      {"measurement": "induction of NQO I", "setting": "[2]", "value": "showed induction of NQO I (cell culture)"},
      {"measurement": "induction of ALDH", "setting": "[3]", "value": "showed induction of ALDH (cell culture)"},
      {"measurement": "CYP1A1 activity", "setting": "[4]", "value": "showed increase CYP1A1 activity (cell"},
      {"measurement": "induction of GST", "setting": "[5]", "value": "showed induction of GST (cell culture)"}
    ]},
    {"smiles": "c1ccc(C2(N3CCCCC3)CCCCC2)cc1", "note": "[phencyclidine]", "values": [
      {"measurement": "GDNF mRNA expression", "setting": "GDNF mRNA", "value": "GDNF mRNA expression increased in rats"}
    ]},
    {"smiles": "CCC1(c2ccccc2)C(=O)NC(=O)NC1=O", "note": "[phenobarbital]", "values": [
      {"measurement": "CYP1A1 activity", "setting": "[4]", "value": "showed increase CYP1A1 activity (cell"}
    ]},
    {"smiles": "O=c1cc(-c2ccccc2)oc2ccc3ccccc3c12", "note": "[β-naphthaoflavone]", "values": [
      {"measurement": "CYP1A1 activity", "setting": "[4]", "value": "showed increase CYP1A1 activity (cell"}
    ]}
  ]
}
